Values joined by “and” are separate entries in the source; they are usually repeats but may differ in a detail not shown here. Identical values can stand only once.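 Cultured in 96-well plates, cells were exposed to test compound for 48 hours across five concentrations. GI50: concentration for 50% inhibition of growth. Definition used: TGI = concentration required for complete inhibition of growth.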
Experiments:
Test in all cases: NCI anticancer screen, dose series, 48 h
[1] = test system: SK-OV-3 ovarian
[2] = test system: LOX IMVI melanoma
[3] = test system: OVCAR-3 ovarian
[4] = test system: 786-0 renal
[5] = test system: OVCAR-4 ovarian
[6] = test system: DU-145 prostate
[7] = test system: BT-549 breast
[8] = test system: U251 CNS
[9] = test system: SK-MEL-5 melanoma
[10] = test system: SK-MEL-28 melanoma

Structure (SMILES) | GI50 [1] [µM] | TGI [1] [µM] | GI50 [2] | TGI [2] | GI50 [3] | TGI [3] | GI50 [4] | TGI [4] | GI50 [5] | TGI [5] | GI50 [6] | TGI [6] | GI50 [7] | TGI [7] | GI50 [8] | TGI [8] | GI50 [9] | TGI [9] | GI50 [10] | TGI [10]
COC1CCN(C(=O)c2cc(Cc3n[nH]c(=O)c4ccccc34)ccc2F)CC1 | > 100 | > 100 | 58.5 µM | > 100 µM | 74.1 µM | > 100 µM | > 100 µM | > 100 µM | 36.7 µM | > 100 µM | > 85.7 µM | > 100 µM | 28.8 µM | > 100 µM | > 55.3 µM | > 100 µM | 32 µM | > 100 µM | > 100 µM | > 100 µM
CCOC(=O)n1cc(C2=C(c3cn(C)c4ccccc34)COC2=O)c2ccccc21 | 1.97 | 56.8 | 0.132 µM | > 96.6 µM | 0.0391 µM | 0.277 µM | 0.268 µM | 15.8 µM | 0.0692 µM | > 100 µM | 0.391 µM | > 58 µM | 0.145 µM | 11.1 µM | 0.274 µM | 22.1 µM | 0.0359 µM | 0.393 µM | 1.03 µM | > 100 µM
c1cc2[nH]ncc2cc1-c1nc2ccc3[nH]ncc3c2c2c1CCCC2 | 0.781 | – | 0.811 µM | 4.54 µM | 1.78 µM | 7.58 µM | 2.1 µM | 11.3 µM | 1.97 µM | 14.4 µM | 2.27 µM | 11.2 µM | 1 µM | 3.78 µM | 2.66 µM | 15.5 µM | 1.67 µM | 3.92 µM | 1.28 µM | 5.88 µM
O=C1Nc2c(C(F)(F)F)cccc2[C@@]1(c1ccc(O)cc1)c1ccc(OC(F)(F)F)cc1 | 0.0415 | 0.38 | < 0.01 µM | < 0.0137 µM | < 0.01 µM | < 0.0171 µM | 0.0265 µM | 1.21 µM | < 0.01 µM | < 0.01 µM | 0.0303 µM | 0.0866 µM | < 0.01 µM | < 0.0132 µM | 0.319 µM | 20.1 µM | 0.2 µM | 16.6 µM | 13.3 µM | 27.7 µM
O=C(/C(=C\c1ccc([N+](=O)[O-])cc1)S(=O)Cc1ccc(F)cc1)c1ccc(F)cc1 (stereo not given) | 11.8 | 24.2 | 1.54 µM | 3.05 µM | 1.63 µM | 3.01 µM | 1.74 µM | 3.92 µM | 1.84 µM | 3.91 µM | 1.66 µM | 3.06 µM | 1.96 µM | 3.88 µM | 1.72 µM | 3.44 µM | 1.8 µM | 3.5 µM | 1.8 µM | 3.66 µM
Clc1ccc2c(c1)N(c1ncnc3ccc(-c4cnc5[nH]ccc5c4)cc13)CC2 | 4.03 | 61.4 | 0.734 µM | 10.3 µM | 1.67 µM | 20.4 µM | 1.56 µM | 14.5 µM | 1.12 µM | 16.9 µM | 2.22 µM | 19.4 µM | 0.949 µM | 47.8 µM | 2.51 µM | 10.9 µM | 3.8 µM | 26.4 µM | 10.2 µM | 27.7 µM
CCN(CC)CCOc1ccccc1/C=C/c1noc2ccccc12 | – | 34.3 | – | – | – | 38.1 µM | – | 26.7 µM | – | 50.7 µM | – | 29.1 µM | – | 29.9 µM | – | – | – | 16.5 µM | – | 21.1 µM
C=CC(=O)NCc1cccc(Nc2ncc(Br)c(NCCCNC(=O)C3CCC3)n2)c1 | 0.9 | 9.84 | 0.337 µM and 0.246 µM | 4.21 µM and 4.58 µM | 1.57 µM and 1.18 µM | 4.78 µM and 8.16 µM | 1.29 µM and 1.26 µM | 6.16 µM and > 25 µM | 1.67 µM and 1.2 µM | 6.07 µM and 12.8 µM | 1.25 µM and 1.36 µM | 12.5 µM and 19.4 µM | 0.698 µM and 0.515 µM | 2.55 µM and 2.42 µM | 0.665 µM and 0.591 µM | 12.5 µM and 5.94 µM | 2.23 µM and 1.87 µM | 5.35 µM and 5.81 µM | 2.44 µM and 2.26 µM | 9.94 µM and 9.29 µM
COc1ccc(C(=O)COC(=O)[C@H](C[Se][Se]C[C@H](NC(=O)c2ccc(Br)cc2F)C(=O)OCC(=O)c2ccc(OC)cc2)NC(=O)c2ccc(Br)cc2F)cc1 | 0.441 | 1.64 | 0.914 µM | 2.32 µM | 0.88 µM | 2.31 µM | 0.433 µM | 1.46 µM | 1.64 µM | 3.1 µM | 0.843 µM | 2.68 µM | 0.86 µM | 2.47 µM | 0.312 µM | 1.07 µM | 0.596 µM | 2.76 µM | 1.59 µM | 5.61 µM
COC(=O)[C@]12CC[C@@H](C)[C@H](C)[C@@H]1C1=CC[C@@H]3[C@@]4(C)C(C=O)=C[C@@](C)(COC(C)=O)C4=CC[C@@]3(C)[C@]1(C)CC2 | 18 | 50.4 | 3.3 µM | 12.7 µM | 3.54 µM | 12.2 µM | 3.5 µM | 15 µM | 4.06 µM | 18.3 µM | 5.24 µM | 19.4 µM | 6.9 µM | 25.9 µM | 3.37 µM | 13.9 µM | 10.5 µM | 22.6 µM | 3.22 µM | 12.3 µM
O=[N+]([O-])c1ccc(Sc2ncnc3nc[nH]c23)c2nonc12 | 3.75 | 16.2 | 1.04 µM | 16 µM | 0.714 µM | 16.6 µM | 1.74 µM | 5.16 µM | 0.811 µM | 16.9 µM | 5.16 µM | > 100 µM | 10.3 µM | 27.4 µM | 14.8 µM | 50.5 µM | 10.2 µM | 22.3 µM | 5.79 µM | 18.5 µM
O=C1c2ccccc2S(=O)(=O)N1CSC(=S)N1CCCCC1 | > 100 | > 100 | > 100 µM | > 100 µM | > 100 µM | > 100 µM | > 100 µM | > 100 µM | > 100 µM | > 100 µM | > 100 µM | > 100 µM | > 100 µM | > 100 µM | > 100 µM | > 100 µM | 33.2 µM | > 100 µM | > 100 µM | > 100 µM
Nc1nc2c(s1)CCc1c-2c(Br)n(Cc2ccccc2)c1Br | 23.6 | 53.7 | 3.98 µM | 19.7 µM | 3.9 µM | 13.8 µM | 7.11 µM | 22.9 µM | – | – | 16.1 µM | 37.3 µM | 15.1 µM | 30.2 µM | 14 µM | 28.2 µM | 14.3 µM | 30.2 µM | 12.9 µM | 26.2 µM

From PubChem BioAssay (NCI)
